Assay results published in the supplement of paper PMC6045584.
± gives the standard deviation of the averaged measurements.

Tests used:
[1] = compound: CN(C)CC[C@H](CSc1ccccc1)Nc1ccc(S(=O)(=O)NC(=O)c2ccc(N3CCN(Cc4ccccc4-c4ccc(Cl)cc4)CC3)cc2)cc1[N+](=O)[O-] [ABT-737]; assay: surviving fraction relative to DMSO-only wells; higher = less growth inhibition; details: exposure time: 5 days
Summary of the method: (§1)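 Lines were retained only if, across three screens, replicate Pearson r was >0.7 and median Z' was >0.3. Viability was measured as CellTiter-Glo luminescence and reported as surviving fraction relative to the median of DMSO-only wells. Readings followed 10 minutes at room temperature, after log-phase tumour cells seeded at 250–500 per well in 384-well plates had been exposed, from 24 hours after seeding, continuously for five days to inhibitors at 0.5, 1, 5, 10, 50, 100, 500 and 1000 nM.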

[2] = compound: O=c1[nH]cc(F)c(=O)[nH]1 [FLUOROURACIL]; assay: as above; details: exposure time: 5 days
Summary of the method: as §1

| Test System | surviving fraction ([1]; 0.5 nM) | surviving fraction ([1]; 1 nM) | surviving fraction ([1]; 5 nM) | surviving fraction ([1]; 10 nM) | surviving fraction ([1]; 50 nM) | surviving fraction ([1]; 100 nM) | surviving fraction ([1]; 500 nM) | surviving fraction ([1]; 1000 nM) | surviving fraction ([2]; 0.5 nM) | surviving fraction ([2]; 1 nM) | surviving fraction ([2]; 5 nM) | surviving fraction ([2]; 10 nM) | surviving fraction ([2]; 50 nM) | surviving fraction ([2]; 100 nM) | surviving fraction ([2]; 500 nM) | surviving fraction ([2]; 1000 nM) |
| --- | --- | --- | --- | --- | --- | --- | --- | --- | --- | --- | --- | --- | --- | --- | --- | --- |
| SUM44 BREAST | 1.28 ± 0.43 | 1.31 ± 0.53 | 1.32 ± 0.44 | 1.3 ± 0.53 | 1.28 ± 0.48 | 1.25 ± 0.48 | 1.2 ± 0.42 | 1.1 ± 0.34 | 1.03 ± 0.23 | 0.958 ± 0.17 | 1.02 ± 0.16 | 0.956 ± 0.12 | 1.05 ± 0.12 | 0.788 ± 0.041 | 0.982 ± 0.05 | 0.726 ± 0.07 |
| SUM149 BREAST | 1.02 ± 0.036 | 1.07 ± 0.023 | 1.1 ± 0.061 | 1.08 ± 0.051 | 0.952 ± 0.058 | 1.07 ± 0.075 | 0.97 ± 0.049 | 0.961 ± 0.056 | 0.934 ± 0.029 | 0.969 ± 0.064 | 0.908 ± 0.028 | 0.909 ± 0.038 | 0.872 ± 0.071 | 0.902 ± 0.063 | 0.736 ± 0.069 | 0.597 ± 0.057 |
| SUM149.B1*.S BREAST | 1.13 ± 0.027 | 1.1 ± 0.072 | 1.16 ± 0.021 | 1.12 ± 0.034 | 1.12 ± 0.057 | 1.11 ± 0.069 | 1.1 ± 0.024 | 1.16 ± 0.055 | 1.1 ± 0.044 | 1.06 ± 0.043 | 1.12 ± 0.028 | 1.04 ± 0.04 | 1.04 ± 0.064 | 0.962 ± 0.034 | 0.909 ± 0.03 | 0.812 ± 0.021 |
| SUM159 BREAST | 1.1 ± 0.018 | 1.1 ± 0.028 | 1.12 ± 0.027 | 1.09 ± 0.026 | 1.095 ± 0.006 | 1.09 ± 0.021 | 1.11 ± 0.018 | 1.08 ± 0.014 | 1.1 ± 0.024 | 1.07 ± 0.023 | 1.08 ± 0.027 | 1.06 ± 0.026 | 1.073 ± 0.0051 | 1.01 ± 0.012 | 1.03 ± 0.014 | 0.915 ± 0.01 |
| SYO1 SYNOVIAL | 1.03 ± 0.048 | 1.039 ± 0.01 | 1.03 ± 0.07 | 1.025 ± 0.0082 | 1.04 ± 0.08 | 0.984 ± 0.048 | 0.752 ± 0.03 | 0.504 ± 0.024 | 1.02 ± 0.012 | 0.989 ± 0.01 | 0.962 ± 0.029 | 0.974 ± 0.024 | 0.894 ± 0.016 | 0.872 ± 0.034 | 0.763 ± 0.034 | 0.616 ± 0.025 |
| T47D BREAST | 1.13 ± 0.026 | 1.08 ± 0.031 | 1.08 ± 0.08 | 1.08 ± 0.025 | 1.03 ± 0.2 | 1.089 ± 0.0036 | 1.11 ± 0.11 | 1.05 ± 0.035 | 1.02 ± 0.03 | 1.03 ± 0.03 | 1 ± 0.0033 | 1.01 ± 0.03 | 1.02 ± 0.041 | 0.95 ± 0.04 | 0.855 ± 0.02 | 0.761 ± 0.028 |
| U2OS BONE | 1.04 ± 0.048 | 1.04 ± 0.026 | 1.06 ± 0.055 | 1.04 ± 0.012 | 1.08 ± 0.035 | 1.11 ± 0.024 | 1.06 ± 0.029 | 1.02 ± 0.038 | 1.02 ± 0.021 | 1.04 ± 0.025 | 1.083 ± 0.0072 | 1.05 ± 0.05 | 1.01 ± 0.011 | 0.966 ± 0.083 | 0.843 ± 0.051 | 0.674 ± 0.043 |
| VCAP PROSTATE | 1.03 ± 0.065 | 0.971 ± 0.075 | 1.14 ± 0.15 | 1.04 ± 0.047 | 1.17 ± 0.078 | 1.13 ± 0.19 | 1.01 ± 0.1 | 0.94 ± 0.047 | 1.03 ± 0.11 | 1.06 ± 0.026 | 1.09 ± 0.044 | 1.22 ± 0.097 | 1.05 ± 0.077 | 0.998 ± 0.22 | 0.916 ± 0.17 | 0.939 ± 0.049 |
| VP229 BREAST | 1.1 ± 0.09 | 1.12 ± 0.06 | 1.18 ± 0.11 | 1.12 ± 0.049 | 1.22 ± 0.11 | 1.17 ± 0.11 | 1.17 ± 0.017 | 1.13 ± 0.063 | 1.08 ± 0.036 | 0.988 ± 0.05 | 1.1 ± 0.13 | 0.92 ± 0.16 | 0.905 ± 0.068 | 0.827 ± 0.062 | 0.773 ± 0.095 | 0.654 ± 0.18 |
| YAMATO SYNOVIAL | 1.27 ± 0.17 | 1.32 ± 0.11 | 1.35 ± 0.16 | 1.34 ± 0.043 | 1.33 ± 0.19 | 1.38 ± 0.029 | 1.27 ± 0.026 | 1.27 ± 0.14 | 1.2 ± 0.08 | 1.15 ± 0.056 | 1.3 ± 0.021 | – | 0.921 ± 0.061 | 0.829 ± 0.046 | 0.791 ± 0.053 | 0.654 ± 0.028 |
| ZR751 BREAST | 1.08 ± 0.16 | 1.1 ± 0.096 | 1.14 ± 0.17 | 1.02 ± 0.052 | 1.07 ± 0.071 | 1.03 ± 0.076 | 1.07 ± 0.095 | 1.03 ± 0.15 | 1.21 ± 0.13 | 1.26 ± 0.11 | 0.966 ± 0.051 | 1.12 ± 0.18 | 1.04 ± 0.12 | 1.1 ± 0.16 | 0.974 ± 0.072 | 0.81 ± 0.083 |
